Tested on: SH3P12/CAP/ponsin mRNA
Experiment: SH3P12/CAP/ponsin mRNA level in differentiated 3T3-L1 adipocytes after BRL49653
Type: cell-based, murine
Conditions: BRL49653 4.5 μM for 16 hours added to well-differentiated 3T3-L1 adipocytes on day 6; 8.25 fold in the absence of BRL49653

## CN(CCOc1ccc(CC2SC(=O)NC2=O)cc1)c1ccccn1 (stereo not shown) [BRL49653, rosiglitazone]
  level of SH3P12/CAP/ponsin mRNA, fold higher than pre-induction levels: 17.6 fold

From patent publication US20040072230A1, “Human SORBS1 genetic variations contribute to insulin resistance, obesity, type 2 diabetes, and hypertension” (priority 2002, published 2004)
